Entries after “also recorded” stand apart in the source; their conditions may differ.
Assays:
[1] = U.S. Pat. No. 6,143,738; Ahima et al. (2002); cited from earlier work
[2] = tested on: C57BL/6 males; assay: Growth delay in C57BL/6 mice (Example 2, FIG. 3); assay type: in vivo; conditions: for weight: 10 mg/kg i.p. every 3 days for two doses
Method: Animals were then weighed and body length measured once weekly for a period of 40 days.
An experiment was conducted to determine whether treatment of animals with Aminosterol 1436 would delay growth of the animal.
C57BL/6 males (12-16 grams) were administered either vehicle or 10 mg/kg (i.p.) of Aminosterol 1436 every 3 days for two doses, for a total of 20 mg/kg over a 6 day period. The mice were about 3 weeks old, and there were 10 mice/arm. The animals were weighed and body length measured once weekly for a period of 40 days.
The results shown in FIG. 3 indicate that growth rates of the animals were slowed upon administration of Aminosterol 1436, which is consistent with the results shown in FIG. 2 and described in Example 1.

[3] = tested on: adult mouse; assay: Neuroregeneration in adult mouse brain; assay type: in vivo
From the text: The hypothalamus is of particular interest because it happens to be the site of localization of Aminosterol 1436 in the brain.

[4] = Brain localisation of radioactive Aminosterol 1436 after IV or ICV administration (FIG. 1); assay type: in vivo; conditions: radioactive compound, rat, IV via peripheral vein or injected into 3rd ventricle (ICV)
From the text: The exact mechanism by which Aminosterol 1436 achieves its effect on preventing, delaying onset, and/or treating neurodegeneration, delaying maturity, retarding aging, and increasing potential lifespan is not known. However, without being bound by theory, Applicant theorizes that the effect of Aminosterol 1436 is likely in part due to the drug's effects on the hypothalamus within the brain of the animal.

[5] = tested on: B6D2F1 (BDF1) mice; assay: Dose response of growth delay in BDF1 mice (Example 1, FIG. 2); assay type: in vivo; conditions: for age at which animals reached maturity: male BDF1 mice, controls 120 days; for delay in reaching maturity, as measured by end weight: vs control
Method: While all animals reached the mature weight of about 40 grams, the control animals reached maturity at 120 days, and the animals that received 5 and 10 mg/kg of Aminosterol 1436 reached maturity at 150 and 255 days, respectively.
An experiment was conducted to explore the dose response to a delay in growth of B6D2F1 (BDF1) mice to Aminsoterol 1436.
30 day old male BDF1 mice received either vehicle or Aminosterol 1436 intraveneously (IV) at 5 mg/kg or 10 mg/kg (n=15 for each treatment arm) every 3 days until 51 days of age. The Aminosterol 1436 was administered as a aqueous solution in water. BDF1 mice are available from Charles River Laboratories. The animals were fed standard lab chow, offered ad libitum. The animals were weighed and body length measured every 5 days.
However, while the control animals reached maturity at 120 days, the animals that received 5 mg/kg of Aminosterol 1436 reached maturity at 150 days, corresponding to a 25% delay in reaching maturity, as measured by end weight. […] Most importantly, both treated and untreated animals reached normal adult dimensions, albeit at different rates.

[6] = tested on: HIV; conditions: tissue culture; U.S. Pat. No. 5,763,430; cited from earlier work
[7] = molecular target: T1, phosphatase PTP1B (Homo sapiens, UniProt P18031); conditions: Lantz et al., 2010; cited from earlier work
T1 sequence (P18031 1-435): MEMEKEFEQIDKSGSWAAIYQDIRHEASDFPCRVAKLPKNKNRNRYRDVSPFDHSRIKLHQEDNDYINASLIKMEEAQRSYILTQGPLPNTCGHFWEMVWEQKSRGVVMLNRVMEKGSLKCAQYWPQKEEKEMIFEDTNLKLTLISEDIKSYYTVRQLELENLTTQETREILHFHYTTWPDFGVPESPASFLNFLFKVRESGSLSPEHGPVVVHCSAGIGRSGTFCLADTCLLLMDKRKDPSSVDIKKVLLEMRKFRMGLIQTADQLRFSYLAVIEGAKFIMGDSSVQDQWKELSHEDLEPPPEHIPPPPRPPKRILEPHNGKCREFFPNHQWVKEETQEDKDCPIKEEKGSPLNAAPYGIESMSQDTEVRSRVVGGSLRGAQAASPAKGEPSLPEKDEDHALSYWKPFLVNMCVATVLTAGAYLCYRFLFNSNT

SMILES	appetite suppression and weight loss [1]	weight ([2]; Day 0, control 16 g)	decrease in weight ([2]; Day 0 to Day 40, 10 mg/kg i.p. x 2, control increase of 50%)	weight ([2]; Day 40, control 24 g)	neuroregeneration [3]	number of cells in brain areas ([3]; subependymal zone, granular layers of olfactory bulb, medial and lateral hypothalamus, thalamus)	accumulation in brain [4]	growth rate slower than the controls (by increasing weight) ([5]; 5 mg/kg IV)	age at which animals reached maturity ([5]; 5 mg/kg IV every 3 days from 30 to 51 days of age)	delay in reaching maturity, as measured by end weight ([5]; 5 mg/kg IV)	growth rate slowed (by increasing weight) ([5]; 10 mg/kg IV)	age at which animals reached maturity ([5]; 10 mg/kg IV every 3 days from 30 to 51 days of age)	delay in reaching maturity, as measured by end weight ([5]; 10 mg/kg IV)	linear growth ([5]; 5 and 10 mg/kg IV, data not shown)	mature weight reached ([5]; all animals (5 mg/kg, 10 mg/kg and control))	antiviral activity against HIV [6]	inhibition of PTP1B [7]
CC(C)[C@@H](CC[C@@H](C)[C@H]1CC[C@H]2[C@@H]3[C@H](O)C[C@H]4C[C@@H](NCCCNCCCCNCCCN)CC[C@]4(C)[C@H]3CC[C@]12C)OS(=O)(=O)O [Aminosterol 1436, trodusquemine]	potent appetite suppression and promotion of dose-dependent weight loss	12 g	8.3%	11 g	stimulates neuroregeneration	increase	accumulation of Aminosterol 1436 within the centers of the brain that control growth, maturation, and senescence; also recorded: accumulates within the centers of the brain that control growth, maturation and senescence	about 30%	150 days	25%	50%	255 days	112.5%	slowed to a corresponding degree	about 40 grams	exhibits antiviral activity against HIV	inhibit the phosphatase PTP1B
CC(C)[C@@H](CC[C@@H](C)[C@H]1CC[C@H]2[C@@H]3[C@H](O)C[C@H]4C[C@@H](NCCCNCCCCN)CC[C@]4(C)[C@H]3CC[C@]12C)OS(=O)(=O)O [squalamine, reference compound]	not shared with squalamine																

Source: patent US20190381071A1, “METHODS AND COMPOSITIONS FOR TREATING AND/OR PREVENTING THE PROGRESSION AND/OR ONSET OF AGE-RELATED NEURODEGENERATION” (Enterin, Inc., priority 2018, published 2019)
